In patent publication US8895561B2, “Compounds and methods for treating candidiasis and aspergillus infections” (Cellceutix Corporation, priority 2012, dated 2014):
Values after ≈ are worked out from the molar mass of the structure shown.

These molecules were tested on C. albicans GDH2346 hyphal biofilm (assay: Candida IC50 in the hyphal state / hyphal biofilm, MTS viability assay). Details: Candida albicans, 48 h; 2-day hyphal biofilm cultures; read-out: Anti-C. albicans GDH2346 Hyphal (IC50).
Assay type: cell-based
Protocol: Candida IC50s were determined by OD600 and fluorescence from vegetative cells and by MTS viability assay in the hyphal state. MICs were determined using a broth microdilution assay under standard CLSI conditions Bacteria strains: E. coli 25922 (EC), S. aureus 27660 (SA), E. faecalis 29212 (EF), P. aeruginosa 10145 (PA), and K. pneumoniae 13883 (KP). Cytotoxicity (EC50) was determined against mouse 3T3 fibroblasts, human transformed liver HepG2 cells, and human oral keratinocyte cell line, OKF6/TERT using an MTS viability assay. Candida IC50s<10 μg/mL, MICs<5 μg/mL and cytotoxicity EC50s>100 μM are indicated in green. MICs>5 μg/mL and cytotoxicity EC50s<100 μM are indicated in red. To form the biofilm, yeast were grown in RPMI/MOPS, 0.4% sucrose pH7.4 media supplemented with 10% FBS in tissue culture-treated flat bottom 96 well plates for 48 hours. The filamentous yeast cultures were then vigorously washed to remove any non-filamentous, non-attached yeast. The remaining attached filamentous biofilm yeast were incubated in saline containing serially diluted compounds for 24 hours. The cultures were aspirated to remove compound, rinsed and overlayed with RPMI/MOPS, 0.4% sucrose pH7.4 media. Biofilm viability was measured using a cell proliferation assay (CellTiter96 Aqueous Kit from Promega) and IC50s were determined using Prism GraphPad software (nonlinear fit, Table 3).

SMILES | IC50 [µg/mL]
NCCSc1cc(SCCN)c(C(F)(F)F)cc1NC(=O)c1cc(C(=O)Nc2cc(C(F)(F)F)c(SCCN)cc2SCCN)ncn1 [Compound 100] | 4.9 (≈ 6.49 µM)

Same assay, conditions: Candida albicans; hyphal state; read-out: IC50 Candida, Hyphal

SMILES | IC50 [µg/mL]
NCCSc1cc(SCCN)c(C(F)(F)F)cc1NC(=O)c1cc(C(=O)Nc2cc(C(F)(F)F)c(SCCN)cc2SCCN)ncn1 [Compound 100] | 4.9 (≈ 6.49 µM)

What follows are molecules tested on E. coli 25922 (assay: Bacterial MIC, broth microdilution, CLSI). Details: Escherichia coli; E. coli 25922.
Assay type: cell-based
Protocol: (§1) Candida IC50s were determined by OD600 and fluorescence from vegetative cells and by MTS viability assay in the hyphal state. MICs were determined using a broth microdilution assay under standard CLSI conditions Bacteria strains: E. coli 25922 (EC), S. aureus 27660 (SA), E. faecalis 29212 (EF), P. aeruginosa 10145 (PA), and K. pneumoniae 13883 (KP). Cytotoxicity (EC50) was determined against mouse 3T3 fibroblasts, human transformed liver HepG2 cells, and human oral keratinocyte cell line, OKF6/TERT using an MTS viability assay. Candida IC50s<10 μg/mL, MICs<5 μg/mL and cytotoxicity EC50s>100 μM are indicated in green. MICs>5 μg/mL and cytotoxicity EC50s<100 μM are indicated in red. Candida IC50s (CA) were determined by OD600 and fluorescence from vegetative cells. MICs were determined using a broth microdilution assay under standard CLSI conditions Bacteria strains: E. coli 25922 (EC), S. aureus 27660 (SA), E. faecalis 29212 (EF), P. aeruginosa 10145 (PA), and K. pneumoniae 13883 (KP). Cytotoxicity (EC50) was determined against mouse 3T3 fibroblasts and human transformed liver HepG2 cells using an MTS viability assay.

SMILES | EC50 [µg/mL]
NCCSc1cc(SCCN)c(C(F)(F)F)cc1NC(=O)c1cc(C(=O)Nc2cc(C(F)(F)F)c(SCCN)cc2SCCN)ncn1 [Compound 100] | 1.56 (≈ 2.07 µM)

What follows are molecules tested on E. faecalis 29212 (assay: Bacterial MIC, broth microdilution, CLSI). Details: Enterococcus faecalis; E. faecalis 29212.
Assay type: cell-based
Protocol: as §1

SMILES | EC50 [µg/mL]
NCCSc1cc(SCCN)c(C(F)(F)F)cc1NC(=O)c1cc(C(=O)Nc2cc(C(F)(F)F)c(SCCN)cc2SCCN)ncn1 [Compound 100] | 0.78 (≈ 1.03 µM)

Each molecule was assayed on K. pneumoniae 13883 (assay: Bacterial MIC, broth microdilution, CLSI). Details: Klebsiella pneumoniae.
Assay type: cell-based
Protocol: as §1

SMILES | EC50 [µg/mL]
NCCSc1cc(SCCN)c(C(F)(F)F)cc1NC(=O)c1cc(C(=O)Nc2cc(C(F)(F)F)c(SCCN)cc2SCCN)ncn1 [Compound 100] | 1.56 (≈ 2.07 µM)

The molecules below were run on P. aeruginosa 10145 (assay: Bacterial MIC, broth microdilution, CLSI). Details: Pseudomonas aeruginosa; P. aeruginosa 10145.
Assay type: cell-based
Protocol: as §1

SMILES | EC50 [µg/mL]
NCCSc1cc(SCCN)c(C(F)(F)F)cc1NC(=O)c1cc(C(=O)Nc2cc(C(F)(F)F)c(SCCN)cc2SCCN)ncn1 [Compound 100] | 3.13 (≈ 4.15 µM)

What follows are molecules tested on S. aureus 27660 (assay: Bacterial MIC, broth microdilution, CLSI). Details: Staphylococcus aureus; S. aureus 27660.
Assay type: cell-based
Protocol: as §1

SMILES | EC50 [µg/mL]
NCCSc1cc(SCCN)c(C(F)(F)F)cc1NC(=O)c1cc(C(=O)Nc2cc(C(F)(F)F)c(SCCN)cc2SCCN)ncn1 [Compound 100] | 0.78 (≈ 1.03 µM)

The molecules below were run on human oral keratinocyte cell line, OKF6/TERT (assay: Cytotoxicity, MTS viability assay). Details: not given.
Assay type: cell-based
Protocol: Candida IC50s were determined by OD600 and fluorescence from vegetative cells and by MTS viability assay in the hyphal state. MICs were determined using a broth microdilution assay under standard CLSI conditions Bacteria strains: E. coli 25922 (EC), S. aureus 27660 (SA), E. faecalis 29212 (EF), P. aeruginosa 10145 (PA), and K. pneumoniae 13883 (KP). Cytotoxicity (EC50) was determined against mouse 3T3 fibroblasts, human transformed liver HepG2 cells, and human oral keratinocyte cell line, OKF6/TERT using an MTS viability assay. Candida IC50s<10 μg/mL, MICs<5 μg/mL and cytotoxicity EC50s>100 μM are indicated in green. MICs>5 μg/mL and cytotoxicity EC50s<100 μM are indicated in red.
(§2) CLSI conditions Bacteria strains: clinical isolates; yeast strains: C. dubliniensis (NCPF3949), C. glabrata (ATCC 90030), C. krusei (ATCC 6258), C. parapsilosis (ATCC 22019), and C. tropicalis (ATCC 750). Cytotoxicity (EC50) was determined against mouse 3T3 fibroblasts, human transformed liver HepG2 cells, and human oral keratinocyte cell line, OKF6/TERT using an MTS viability assay.

SMILES | IC50 [mM]
NCCSc1cc(SCCN)c(C(F)(F)F)cc1NC(=O)c1cc(C(=O)Nc2cc(C(F)(F)F)c(SCCN)cc2SCCN)ncn1 [Compound 100] | > 1

The molecules below were run on C. albicans GDH2346 (assay: Candida MIC, CLSI M27-A3). Details: Candida albicans, GDH2346; Table 5; read-out: MIC C. albicans.
Assay type: cell-based
Protocol: (§3) Candida MIC assays were determined in accordance with CLSI guidelines M27-A3 using a clinically isolated C. albicans strain, GDH2346.50% human serum was added to determine activity in the presence of serum.

SMILES | MIC [µg/mL]
NCCSc1cc(SCCN)c(C(F)(F)F)cc1NC(=O)c1cc(C(=O)Nc2cc(C(F)(F)F)c(SCCN)cc2SCCN)ncn1 [Compound 100] | 4 to 8 (≈ 5.3 to 10.6 µM)

The molecules below were run on C. dubliniensis (NCPF3949) (assay: Yeast MIC). Details: Candida dubliniensis, NCPF3949; Table 5; read-out: MIC C. dubliniensis.
Assay type: cell-based
Protocol: as §3, §2

SMILES | MIC [µg/mL]
NCCSc1cc(SCCN)c(C(F)(F)F)cc1NC(=O)c1cc(C(=O)Nc2cc(C(F)(F)F)c(SCCN)cc2SCCN)ncn1 [Compound 100] | 8 (≈ 10.6 µM)

These molecules were tested on C. glabrata (ATCC 90030) (assay: Yeast MIC). Details: Nakaseomyces glabratus, ATCC90030; Table 5; read-out: MIC C. glabrata.
Assay type: cell-based
Protocol: as §3, §2

SMILES | MIC [µg/mL]
NCCSc1cc(SCCN)c(C(F)(F)F)cc1NC(=O)c1cc(C(=O)Nc2cc(C(F)(F)F)c(SCCN)cc2SCCN)ncn1 [Compound 100] | 16 (≈ 21.2 µM)

These molecules were tested on C. krusei (ATCC 6258) (assay: Yeast MIC). Details: Pichia kudriavzevii, ATCC6258.
Assay type: cell-based
Protocol: as §3, §2

SMILES | MIC [µg/mL]
NCCSc1cc(SCCN)c(C(F)(F)F)cc1NC(=O)c1cc(C(=O)Nc2cc(C(F)(F)F)c(SCCN)cc2SCCN)ncn1 [Compound 100] | 8 (≈ 10.6 µM)

The molecules below were run on C. parapsilosis (ATCC 22019) (assay: Yeast MIC). Details: Lodderomyces parapsilosis, ATCC22019.
Assay type: cell-based
Protocol: as §3, §2

SMILES | MIC [µg/mL]
NCCSc1cc(SCCN)c(C(F)(F)F)cc1NC(=O)c1cc(C(=O)Nc2cc(C(F)(F)F)c(SCCN)cc2SCCN)ncn1 [Compound 100] | 8 (≈ 10.6 µM)

Each molecule was assayed on C. tropicalis (ATCC 750) (assay: Yeast MIC). Details: Candida tropicalis, ATCC750.
Assay type: cell-based
Protocol: as §3, §2

SMILES | MIC [µg/mL]
NCCSc1cc(SCCN)c(C(F)(F)F)cc1NC(=O)c1cc(C(=O)Nc2cc(C(F)(F)F)c(SCCN)cc2SCCN)ncn1 [Compound 100] | 4 (≈ 5.3 µM)

These molecules were tested on A. viscosis (assay: Commensal bacteria MIC, broth microdilution). Details: not given.
Assay type: cell-based
Protocol: (§4) Bacterial MICs were determined using a broth microdilution assay under standard
as §2

SMILES | MIC [µg/mL]
NCCSc1cc(SCCN)c(C(F)(F)F)cc1NC(=O)c1cc(C(=O)Nc2cc(C(F)(F)F)c(SCCN)cc2SCCN)ncn1 [Compound 100] | > 64

Each molecule was assayed on S. salivarius (assay: Commensal bacteria MIC, broth microdilution). Details: Streptococcus salivarius.
Assay type: cell-based
Protocol: as §4, §2

SMILES | MIC [µg/mL]
NCCSc1cc(SCCN)c(C(F)(F)F)cc1NC(=O)c1cc(C(=O)Nc2cc(C(F)(F)F)c(SCCN)cc2SCCN)ncn1 [Compound 100] | > 64
